Source: patent US4363805A, “Aminodesoxy-1.4;3.6-dianhydrohexitol nitrates and pharmaceutical composition” (Firma Willmar Schwabe, priority 1980, dated 1982)

Key:
narcotised guinea pigs = assay: Blood pressure experiments on guinea pigs, i.v.; assay type: in vivo, guinea pig; conditions: for blood pressure before: before administration
[1] = tested on: isolated guinea pig hearts; assay: Experiments on Langendorff hearts (coronary flowthrough, inotropism, frequency); conditions: Cavia porcellus, read-out: flowthrough, percentage change with regard to the initial value
Protocol: After reaching the stationary state in the 30th minute, the hearts were each perfused with 50 ml. tyrode solution with a content of test substance of, in each case, 25 μg./ml. Each test substance was tested on 3-6 hearts.
In each case, there was measured the inotropism, the flowthrough and the frequency, whereby the values given in Table I are average values of the percentage changes in comparison with the initial values.

[2] = Acute toxicity, intravenous, mice; assay type: in vivo; conditions: mouse, in vivo; intravenous, within 24 hours; read-out: Evaluated LD50-range
female NMRI-albino mice = assay: Acute toxicity, intravenous, mice; assay type: in vivo; conditions: within 24 hours

Compound | blood pressure after (narcotised guinea pigs; 0.25 mg/kg i.v.) [mm.Hg] | blood pressure Δ (narcotised guinea pigs; 0.25 mg/kg i.v.) [mm.Hg] | blood pressure before (narcotised guinea pigs; 0.25 mg/kg i.v.) [mm.Hg] | blood pressure after (narcotised guinea pigs; 1.00 mg/kg i.v.) [mm.Hg] | blood pressure Δ (narcotised guinea pigs; 1.00 mg/kg i.v.) [mm.Hg] | blood pressure after (narcotised guinea pigs; 2.50 mg/kg i.v.) [mm.Hg] | blood pressure Δ (narcotised guinea pigs; 2.50 mg/kg i.v.) [mm.Hg] | activation at 25 µg/mL [1] [%] | LD50 at 24 h [2] [mg/kg] | Frequency of death (female NMRI-albino mice; 50 mg/kg i.v.) | Frequency of death (female NMRI-albino mice; 100 mg/kg i.v.) | Frequency of death (female NMRI-albino mice; 200 mg/kg i.v.)
O=[N+]([O-])O[C@H]1CO[C@H]2[C@@H]1OC[C@@H]2N1CCCCC1 [15 b] | 63.00 ± 1.83 | -9.00 | 72.00 ± 2.12 | 53.50 ± 1.71 | -17.75 | 49.00 ± 2.48 | -23.00 | 34 | 50 to 100 | 0/3 | 2/3 | 6/6
O=[N+]([O-])O[C@H]1CO[C@H]2[C@@H]1OC[C@@H]2N1CCOCC1 [16 b] | 59.50 ± 5.63 | -9.25 | 68.75 ± 3.07 | 48.25 ± 4.80 | -19.75 | 43.25 ± 4.91 | -23.50 | 14.7 | > 200 | – | – | 0/3
CN1CCN([C@H]2CO[C@H]3[C@@H]2OC[C@@H]3O[N+](=O)[O-])CC1 [17 b] | 59.00 ± 2.27 | -4.50 | 63.50 ± 3.77 | 46.25 ± 3.07 | -17.75 | 38.25 ± 4.55 | -23.50 | 25.1 | > 200 | – | – | 0/3
Cc1cccc(OCC(O)CN[C@H]2CO[C@H]3[C@@H]2OC[C@@H]3O[N+](=O)[O-])c1 (stereo partly drawn) [Example 51, 5-[2-Hydroxy-3-(3-tolyloxy)-propylamino]-5-desoxy-1.4;3.6-dianhydro-L-iditol 2-nitrate] | 63.00 ± 2.35 | -3.75 | 66.75 ± 2.49 | 55.75 ± 2.36 | -10.25 | 42.25 ± 1.32 | -23.50 | 92.4 | 50 to 100 | 0/3 | 3/3 | 6/6
